Here are results for 15 molecules from publication PMC3351444, “Molecular Evolution of a Peptide GPCR Ligand Driven by Artificial Neural Networks” (PLoS ONE, 2012).

A short description of data set [1]: In vitro peptide stability in human serum (RP-HPLC). The following applies: for half-life at 50 µg/mL: human, human serum, 25% (v/v) in RPMI; for t1/2: metabolic stability in human serum.
The target in data set [2] is T1, human CMKLR1 (Homo sapiens, UniProt Q99788).
T1 construct: host or cells: HEK293A (Invitrogen), stably expressing human Gα15
T1 sequence (Q99788 1-373): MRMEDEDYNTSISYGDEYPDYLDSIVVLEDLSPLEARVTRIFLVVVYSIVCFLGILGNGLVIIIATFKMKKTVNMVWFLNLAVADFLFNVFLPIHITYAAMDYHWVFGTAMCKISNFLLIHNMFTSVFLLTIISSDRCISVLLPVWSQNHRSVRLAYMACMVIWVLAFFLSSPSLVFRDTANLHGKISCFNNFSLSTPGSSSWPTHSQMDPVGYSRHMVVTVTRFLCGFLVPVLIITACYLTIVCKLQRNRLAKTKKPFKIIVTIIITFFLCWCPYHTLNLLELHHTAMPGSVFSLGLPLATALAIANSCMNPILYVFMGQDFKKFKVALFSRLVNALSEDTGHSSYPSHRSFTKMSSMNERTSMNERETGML
Description: Ca2+ mobilization (CellLux imaging) agonist assay in HEK293A cells expressing CMKLR1 and Gα15. It is filed as cell-based. As to conditions: Ca2+ mobilization, CMKLR1, decimal comma; for EC50: NR where no EC50 is given, read-out: EC50. Put shortly:
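HEK293A cells co-expressing CMKLR1 and Gα15 were loaded with FLUO4-AM, and peptides were added robotically in C1 buffer (HEPES pH 7.4, 2 mM CaCl2) with 0.1% BSA. Fluorescence changes were read in duplicate wells, buffer-subtracted and normalized to background. EC50 came from amplitude–concentration plots.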

Square brackets hold non-standard residues; d marks the D form. Peptide text beside a SMILES is read from it.

What is called half-life is how long it takes for the measured level to halve. A word on the EC50: it is the concentration needed to bring the measured effect to its halfway point.

For `CC(C)C[C@H](NC(=O)[C@H](N)Cc1ccc(O)cc1)C(=O)N1CCC[C@H]1C(=O)NCC(=O)N[C@@H](CCC(N)=O)C(=O)N[C@@H](Cc1ccc(O)cc1)C(=O)N[C@@H](C)C(=O)N[C@@H](Cc1ccccc1)C(=O)N[C@@H](CO)C(=O)O` [compound 82] (H-[dY]LPGQYAFS-OH; N-terminus assumed), the half-life at 50 µg/mL in data set [1] was found to be 1.28 h. In addition, in data set [2], the max response is recorded as 1,61 DF/F0 and the 50% effective concentration (EC50) came out at 3.62 nM.
As to `CC(C)C[C@H](NC(=O)[C@H](N)Cc1ccccc1)C(=O)N1CCC[C@H]1C(=O)NCC(=O)N[C@@H](CCC(N)=O)C(=O)N[C@@H](Cc1ccc(O)cc1)C(=O)N[C@@H](C)C(=O)N[C@@H](Cc1ccccc1)C(=O)N[C@H](Cc1ccccc1)C(=O)O` [compound 83] (H-[dF]LPGQYAF[dF]-OH; N-terminus assumed), the t1/2 in data set [1] came to 19.28 h. The max response in data set [2] was 1,82 DF/F0.
Regarding `C[C@H](NC(=O)[C@H](Cc1ccc(O)cc1)NC(=O)[C@H](CCC(N)=O)NC(=O)CNC(=O)[C@@H]1CCCN1C(=O)[C@H](CCCNC(=N)N)NC(=O)[C@@H](N)Cc1ccc(O)cc1)C(=O)N[C@@H](Cc1ccccc1)C(=O)N[C@H](CO)C(=O)O` [compound 84] (H-YRPGQYAF[dS]-OH; N-terminus assumed), the t1/2 in data set [1] is 0.35 h. Besides, the max response in data set [2] is 1,84 DF/F0.
As to `CSCC[C@H](NC(=O)[C@H](N)Cc1ccc(O)cc1)C(=O)N1CCC[C@H]1C(=O)NCC(=O)N[C@@H](CCC(N)=O)C(=O)N[C@@H](Cc1ccc(O)cc1)C(=O)N[C@@H](C)C(=O)N[C@@H](Cc1ccccc1)C(=O)N[C@@H](CO)C(=O)O` [compound 85] (H-[dY]MPGQYAFS-OH; N-terminus assumed), the half-life at 50 µg/mL in data set [1] turned out to be 1.25 h. Also, in data set [2], the max response was 1,78 DF/F0 and the EC50 is 11.7 nM.
`CC(C)[C@H](NC(=O)[C@@H](N)Cc1ccc(O)cc1)C(=O)N1CCC[C@H]1C(=O)NCC(=O)N[C@@H](CCC(N)=O)C(=O)N[C@@H](Cc1ccc(O)cc1)C(=O)N[C@@H](C)C(=O)N[C@@H](Cc1ccccc1)C(=O)N[C@H](CO)C(=O)O` [compound 86] (H-YVPGQYAF[dS]-OH; N-terminus assumed): the half-life at 50 µg/mL in data set [1] came to 0.4 h. Besides, in data set [2], the max response was 1,57 DF/F0 and the concentration for a half-maximal effect (EC50) turned out to be 21.8 nM.
For `CC(C)C[C@H](NC(=O)[C@@H](N)Cc1ccc(O)cc1)C(=O)N1CCC[C@H]1C(=O)NCC(=O)N[C@@H](CCC(N)=O)C(=O)N[C@@H](Cc1ccc(O)cc1)C(=O)N[C@@H](C)C(=O)N[C@@H](Cc1ccc(O)cc1)C(=O)N[C@H](CO)C(=O)O` [compound 87] (H-YLPGQYAY[dS]-OH; N-terminus assumed) the same measures were 0.817 h, 1,62 DF/F0 and 27.5 nM.
Taken in the same sequence, the figures for `C[C@H](NC(=O)[C@H](Cc1ccc(O)cc1)NC(=O)[C@H](CCC(N)=O)NC(=O)CNC(=O)[C@@H]1CCCN1C(=O)[C@@H](Cc1ccc(O)cc1)NC(=O)[C@@H](N)Cc1ccc(O)cc1)C(=O)N[C@@H](Cc1ccccc1)C(=O)N[C@H](CO)C(=O)O` [compound 88] (H-Y[dY]PGQYAF[dS]-OH; N-terminus assumed) were 14.8 h, 1,51 DF/F0 and 35.1 nM.
Taken in the same sequence, the figures for `CC(C)C[C@H](NC(=O)[C@@H](N)Cc1ccccc1)C(=O)N1CCC[C@H]1C(=O)NCC(=O)N[C@@H](CCC(N)=O)C(=O)N[C@@H](Cc1ccccc1)C(=O)N[C@H](Cc1c[nH]c2ccccc12)C(=O)N[C@@H](Cc1ccccc1)C(=O)N[C@H](CO)C(=O)O` [compound 89] (H-FLPGQF[dW]F[dS]-OH; N-terminus assumed) were 1.22 h, 1,76 DF/F0 and 49.2 nM.
Turning to `CC(C)[C@H](NC(=O)[C@@H](N)Cc1ccc(O)cc1)C(=O)N1CCC[C@H]1C(=O)NCC(=O)N[C@@H](CCC(N)=O)C(=O)N[C@@H](Cc1ccccc1)C(=O)N[C@@H](C)C(=O)N[C@@H](Cc1ccccc1)C(=O)N[C@H](CO)C(=O)O` [compound 90] (H-YVPGQFAF[dS]-OH; N-terminus assumed), the half-life at 50 µg/mL in data set [1] amounted to 0.383 h. Also, in data set [2], the max response is given as 1,81 DF/F0 and the 50% effective concentration (EC50) was 50 nM.
For `CC(C)[C@H](NC(=O)[C@H](N)Cc1ccc(O)cc1)C(=O)N1CCC[C@H]1C(=O)NCC(=O)N[C@@H](CCC(N)=O)C(=O)N[C@@H](Cc1ccc(O)cc1)C(=O)N[C@@H](C)C(=O)N[C@@H](Cc1ccccc1)C(=O)N[C@@H](CO)C(=O)O` [compound 91] (H-[dY]VPGQYAFS-OH; N-terminus assumed) the same measures were 2.52 h, 1,58 DF/F0 and 53.6 nM.
Taken in the same sequence, the figures for `C[C@H](NC(=O)[C@H](Cc1ccc(O)cc1)NC(=O)[C@H](CCC(N)=O)NC(=O)[C@@H](CO)NC(=O)[C@H](Cc1ccccc1)NC(=O)[C@H](C)NC(=O)[C@@H](N)Cc1ccc(O)cc1)C(=O)N[C@@H](Cc1ccccc1)C(=O)N[C@H](CO)C(=O)O` [compound 92] (H-YAF[dS]QYAF[dS]-OH; N-terminus assumed) were 0.867 h, 1,54 DF/F0 and 60.9 nM.
Taken in the same sequence, the figures for `C[C@H](NC(=O)[C@@H](N)Cc1ccc(O)cc1)C(=O)N[C@@H](Cc1ccccc1)C(=O)N[C@H](CO)C(=O)N1CCC[C@H]1C(=O)NCC(=O)N[C@@H](CCC(N)=O)C(=O)N[C@@H](Cc1ccccc1)C(=O)N[C@H](CO)C(=O)O` [compound 93] (H-YAF[dS]PGQF[dS]-OH; N-terminus assumed) were 1.35 h, 1,67 DF/F0 and 64.4 nM.
As for `C[C@H](NC(=O)[C@H](Cc1ccc(O)cc1)NC(=O)[C@H](CCC(N)=O)NC(=O)CNC(=O)[C@@H]1CCCN1C(=O)[C@H](CCC(=O)O)NC(=O)[C@@H](N)Cc1ccc(O)cc1)C(=O)N[C@@H](Cc1ccccc1)C(=O)N[C@H](CO)C(=O)O` [compound 94] (H-YEPGQYAF[dS]-OH; N-terminus assumed), the half-life at 50 µg/mL in data set [1] amounted to 0.783 h. For the same molecule, in data set [2], the max response is listed as 1,56 DF/F0 and the concentration giving a half-maximal response (EC50) came out at 76.2 nM.
Taken in the same sequence, the figures for `CC(C)C[C@H](NC(=O)[C@H](N)Cc1ccccc1)C(=O)N1CCC[C@H]1C(=O)NCC(=O)N[C@@H](CCC(N)=O)C(=O)N[C@@H](Cc1ccc(O)cc1)C(=O)N[C@@H](C)C(=O)N[C@@H](Cc1ccccc1)C(=O)N[C@H](CO)C(=O)O` [compound 95] (H-[dF]LPGQYAF[dS]-OH; N-terminus assumed) were 40.6 h, 1,75 DF/F0 and 80.6 nM.
Taken in the same sequence, the figures for `CC(C)C[C@@H](NC(=O)[C@H](Cc1c[nH]cn1)NC(=O)[C@H](N)CO)C(=O)NCC(=O)N[C@@H](CCC(N)=O)C(=O)N[C@@H](Cc1ccc(O)cc1)C(=O)N[C@@H](C)C(=O)N[C@H](CC(=O)O)C(=O)N[C@@H](CO)C(=O)O` [compound 96] (H-[dS]H[dL]GQYA[dD]S-OH; N-terminus assumed) were 54.1 h, 1,63 DF/F0 and 90.5 nM.
